Seven compounds from ChEMBL document CHEMBL1201862, “PubChem BioAssay data set” (2004) can be followed below.

The structures appear in SMILES notation.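 Five concentrations, 48 hours, 96-well plates. GI50: concentration for 50% inhibition of growth.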 Activity calls are given as the source filed them. Cut-off read from the data, not from the text of the source: active = GI50 up to about 1.1 µM and inactive = higher.

Some test systems named below: PC-3; CCRF-CEM; UACC-257; SF-539; OVCAR-8; MDA-N; MCF7; M14; IGROV-1; A549; SR; MDA-MB-231; OVCAR-3; TK-10; HL-60; MOLT-4; SW-620; HCT-116; UO-31; SNB-19.
Holding throughout (assay): NCI tumour cell line growth inhibition, 48 h

As to `CC(=O)OCC1CCC(=C2C(=O)OC(C)(C)OC2=O)N1` (stereo not given), the GI50 with PC-3, in the experiment on CCRF-CEM, in the experiment with UACC-257, in the experiment with SF-539, in the experiment with OVCAR-8 and with MDA-N was > 100 µM (inactive) in each case. For the same compound, the GI50 in the experiment with MCF7, in the experiment on M14, in the experiment on IGROV-1, in the experiment with A549, with SR and with MDA-MB-231 was > 100 µM (inactive) in each case. The GI50 with OVCAR-3, with TK-10, in the experiment with HL-60, with MOLT-4, in the experiment on SW-620 and with HCT-116 was > 100 µM (inactive) in each case. For the same compound, the GI50 in the experiment on UO-31 and with SNB-19 was > 100 µM (inactive) each time.
Regarding `N=C(N)NS(=O)(=O)c1ccc(NNC(=O)c2cccc3c(O)c4ccccc4nc23)cc1`, the GI50 in the experiment on PC-3 was 28.4 µM (inactive); with CCRF-CEM, 34.4 µM (inactive); in the experiment with UACC-257, 31.6 µM (inactive); in the experiment with SF-539, 26.5 µM (inactive); in the experiment on OVCAR-8, 26.1 µM (inactive); with MDA-N, 25.2 µM (inactive). Besides, the GI50 with MCF7 was 16.3 µM (inactive); in the experiment with M14, 17.4 µM (inactive); in the experiment with IGROV-1, 24.9 µM (inactive); with A549, 38.7 µM (inactive); in the experiment on SR it was 35.6 µM (inactive); with MDA-MB-231 it was 37.6 µM (inactive). For the same compound, the GI50 in the experiment on OVCAR-3 was 24.1 µM (inactive); in the experiment on TK-10, 44.8 µM (inactive); in the experiment with HL-60 it was 27 µM (inactive); with MOLT-4 it was 30.2 µM (inactive); in the experiment with SW-620, 32.7 µM (inactive); in the experiment on HCT-116 it was 24.5 µM (inactive). Moreover, the GI50 was 18.9 µM (inactive) in the experiment on UO-31 and 48.6 µM (inactive) in the experiment on SNB-19.
With `COc1ccc(C(c2c[nH]c3ccc(Br)cc23)c2c[nH]c3ccc(Br)cc23)cc1`, the GI50 in the experiment with PC-3 is 0.284 µM (active); in the experiment with CCRF-CEM it was 0.138 µM (active); with UACC-257 it was 0.29 µM (active); in the experiment with SF-539, 0.51 µM (active); with OVCAR-8, 0.22 µM (active); in the experiment with MDA-N, 0.208 µM (active). Further, the GI50 in the experiment with MCF7 is 0.21 µM (active); in the experiment with M14, 0.237 µM (active); in the experiment with IGROV-1, 0.264 µM (active); with A549 it was 0.346 µM (active); in the experiment with SR it was 0.151 µM (active); in the experiment with MDA-MB-231, 0.242 µM (active). Besides, the GI50 in the experiment on OVCAR-3 was 0.217 µM (active); with TK-10 it was 0.993 µM (active); in the experiment on HL-60, 0.0828 µM (active); in the experiment on MOLT-4, 0.142 µM (active); in the experiment on SW-620, 0.29 µM (active); in the experiment on HCT-116, 0.149 µM (active). The GI50 was 0.394 µM (active) in the experiment with UO-31 and 0.509 µM (active) in the experiment on SNB-19.
On to `COC(=O)[C@@H]1C[C@H]2OC(=O)CC[C@]2(C)O[C@H]1[C@H]1O[C@@](C)(O)CCC[C@H]1C`, for which the GI50 in the experiment on PC-3 is > 50 µM (inactive); with CCRF-CEM, 14.5 µM (inactive); in the experiment with UACC-257, > 50 µM (inactive); in the experiment with SF-539, > 50 µM (inactive); with OVCAR-8, > 50 µM (inactive); in the experiment on MDA-N, > 50 µM (inactive). Besides, the GI50 in the experiment with MCF7, in the experiment on M14, in the experiment with IGROV-1, in the experiment on A549, with SR and in the experiment with MDA-MB-231 was > 50 µM (inactive) each time. For the same compound, the GI50 in the experiment on OVCAR-3 is > 50 µM (inactive); with TK-10, > 50 µM (inactive); with HL-60 it was 8.95 µM (inactive); in the experiment on MOLT-4 it was > 50 µM (inactive); in the experiment on SW-620, > 50 µM (inactive); in the experiment with HCT-116, > 50 µM (inactive). Moreover, the GI50 in the experiment on UO-31 and in the experiment with SNB-19 was > 50 µM (inactive) each time.
For the compound `COc1ccc(Oc2nc3cc(C(F)(F)F)ccc3nc2C(C)C)cc1`, the GI50 in the experiment with PC-3 was 41.6 µM (inactive); in the experiment with CCRF-CEM, 39.6 µM (inactive); in the experiment on UACC-257, 26.1 µM (inactive); in the experiment on SF-539 it was 41.5 µM (inactive); with OVCAR-8 it was 25.2 µM (inactive); with MDA-N, 35.4 µM (inactive). Also, the GI50 with MCF7 was 18.8 µM (inactive); in the experiment on M14, 31.6 µM (inactive); with IGROV-1, 23.3 µM (inactive); in the experiment with A549, 31.1 µM (inactive); in the experiment with SR it was 16.7 µM (inactive); with MDA-MB-231, 24.7 µM (inactive). Also, the GI50 is 29.6 µM (inactive) in the experiment with OVCAR-3; 81.7 µM (inactive) in the experiment with TK-10; 18.7 µM (inactive) in the experiment with HL-60; 15.7 µM (inactive) in the experiment on MOLT-4; 30.8 µM (inactive) with SW-620; 31 µM (inactive) in the experiment with HCT-116. The GI50 in the experiment on UO-31 is 32.6 µM (inactive); in the experiment with SNB-19, 33.1 µM (inactive).
Regarding `C1CCNCC1.O=C1NC(=S)N/C1=C/c1ccccc1O`, the GI50 in the experiment on PC-3, with CCRF-CEM, in the experiment on UACC-257, in the experiment on SF-539, in the experiment with OVCAR-8 and in the experiment on MDA-N was > 100 µM (inactive) in each case. In addition, the GI50 with MCF7 is > 100 µM (inactive); in the experiment with M14, > 100 µM (inactive); in the experiment on IGROV-1, 99.1 µM (inactive); in the experiment with A549, > 100 µM (inactive); in the experiment with SR, > 100 µM (inactive); in the experiment with MDA-MB-231, > 100 µM (inactive). Further, the GI50 was > 100 µM (inactive) in the experiment with OVCAR-3; > 100 µM (inactive) in the experiment with TK-10; > 100 µM (inactive) in the experiment with HL-60; 73.1 µM (inactive) with MOLT-4; > 100 µM (inactive) in the experiment with SW-620; > 100 µM (inactive) in the experiment with HCT-116. Also, the GI50 with UO-31 was 95.3 µM (inactive); in the experiment with SNB-19, > 100 µM (inactive).
On to `CCOC(=O)c1sc2nc(SC)nc3c2c1NCN3c1ccc(F)c(F)c1`, for which the GI50 in the experiment on PC-3 was 16.4 µM (inactive); in the experiment on CCRF-CEM it was 16.7 µM (inactive); in the experiment with UACC-257, > 45.8 µM (inactive); with SF-539, 5.2 µM (inactive); in the experiment on OVCAR-8, 5.27 µM (inactive); in the experiment on MDA-N, 18.3 µM (inactive). Further, the GI50 in the experiment with MCF7 is 36 µM (inactive); with M14, 31.4 µM (inactive); with IGROV-1, 43.1 µM (inactive); with A549 it was 8.04 µM (inactive); in the experiment with SR it was > 21.5 µM (inactive); in the experiment on MDA-MB-231, 13 µM (inactive). Also, the GI50 in the experiment with OVCAR-3 is 5.57 µM (inactive); in the experiment on TK-10 it was 22.6 µM (inactive); in the experiment with HL-60 it was > 100 µM (inactive); in the experiment on MOLT-4, > 55.2 µM (inactive); in the experiment with SW-620, 10 µM (inactive); with HCT-116, 9.02 µM (inactive). The GI50 in the experiment on UO-31 was 22.1 µM (inactive); with SNB-19 it was 34.8 µM (inactive).
